Each compound was assayed on panel of 290 distinct kinases (321 in the larger panel), excluding mutant variants. Details: asterisk: panel of 321 distinct kinases; fraction of kinases inhibited 65% or greater.
Experimental: Competition binding assays used herein were developed, validated and performed as described in Fabian et al., Nature Biotechnology 2005, 23, 329-336. […] The liganded beads were blocked with excess biotin and washed with blocking buffer (SeaBlock (Pierce), 1% BSA, 0.05% Tween 20, 1 mM DTT) to remove unbound ligand and to reduce non-specific binding. […] Test compounds were prepared as 100× stocks in DMSO and rapidly diluted into the aqueous environment. DMSO was added to control assays lacking a test compound. Primary screen interactions were performed in polypropylene 384-well plates in a final volume of 34 μL, while Kd determinations were performed in polystyrene 96-well plates in a final volume of 135 pt. […] The kinase concentration in the eluates was measured by quantitative PCR. Each kinase was tested individually against each compound. Kds were determined using eleven serial threefold dilutions. A selectivity score, which is a quantitative measure of selectivity of a compound against a panel of enzymes, may be calculated for a compound by dividing the number of enzymes for which a compound meets a set criteria, (for example, a binding constant of 100 nM or less), by the total number of enzymes tested. […] (Note, for those compounds tested in a larger kinase panel, as indicated by an asterisk (*) next to the S35 score, the divisor is 321 (i.e. the larger panel contains 321 distinct kinases, excluding mutant variants.)).

**Q.** `COc1cc2ncnc(Sc3cccc(NC(=O)Nc4cc(C(F)(F)F)n(C)n4)c3)c2cc1OC` [Ex 194, 1-[3-(6,7-dimethoxyquinazolin-4-ylthio)phenyl]-3-[1-methyl-5-(trifluoromethyl)-1H-pyrazol-3-yl]urea] was tested. Which S35 did it give?
**A.** C* (0.20 < C ≦ 0.40)

**Q.** For `COc1cc2ncnc(Sc3cccc(NC(=O)Nc4cc(C(F)(F)F)n(-c5ccccc5)n4)c3)c2cc1OC` [Ex 170, 1-[3-(6,7-dimethoxyquinazolin-4-ylthio)phenyl]-3-[1-phenyl-5-(trifluoromethyl)-1H-pyrazol-3-yl]urea], which S35 is on record?
**A.** B* (0.10 < B ≦ 0.20)

**Q.** With `COc1cc2ncnc(Sc3cccc(NC(=O)Nc4cc(C(F)(F)F)nn4-c4ccc(C)cc4)c3)c2cc1OC` [Ex 199, 1-[3-(6,7-dimethoxyquinazolin-4-ylthio)phenyl]-3-[1-p-tolyl-3-(trifluoromethyl)-1H-pyrazol-5-yl]urea] as the compound, how does the S35 read?
**A.** D* (D > 0.40)

Same assay, conditions: no asterisk: panel of 290 distinct kinases

**Q.** `COc1cc2ncnc(Sc3cccc(NC(=O)Nc4cc(C(C)(C)C)nn4C(C)C)c3)c2cc1OC` [Ex 335, 1-(3-tert-butyl-1-isopropyl-1H-pyrazol-5-yl)-3-(3-(6,7-dimethoxyquinazolin-4-ylthio)phenyl)urea] was tested. Which S35 did it give?
**A.** C (0.20 < C ≦ 0.40)

**Q.** Which S35 does the source give for `CCc1cc(NC(=O)Nc2cccc(Oc3ncnc4cc(OC)c(OC)cc34)c2)n(-c2ccccc2)n1` [Ex 352, 1-(3-(6,7-dimethoxyquinazolin-4-yloxy)phenyl)-3-(3-ethyl-1-phenyl-1H-pyrazol-5-yl)urea] here?
**A.** C (0.20 < C ≦ 0.40)

**Q.** How did the S35 turn out when `COc1cc2ncnc(Oc3cccc(NC(=O)Nc4cc(C(C)C)nn4-c4cccnc4)c3)c2cc1OC` [Ex 350, 1-(3-(6,7-dimethoxyquinazolin-4-yloxy)phenyl)-3-(3-isopropyl-1-(pyridin-3-yl)-1H-pyrazol-5-yl)urea] was run?
**A.** D (D > 0.40)

**Q.** For `COc1cc2ncnc(Oc3cccc(NC(=O)Nc4cc(C(C)(C)C)nn4-c4ccc(C#N)cc4)c3)c2cc1OC` [Ex 328, 1-(3-tert-butyl-1-(4-cyanophenyl)-1H-pyrazol-5-yl)-3-(3-(6,7-dimethoxyquinazolin-4-yloxy)phenyl)urea], which S35 is on record?
**A.** D (D > 0.40)

**Q.** `COc1cc2ncnc(Oc3cccc(NC(=O)Nc4cc(C(C)(C)C#N)nn4-c4ccccc4)c3)c2cc1OC` [Ex 308, 1-(3-(2-cyanopropan-2-yl)-1-phenyl-1H-pyrazol-5-yl)-3-(3-(6,7-dimethoxyquinazolin-4-yloxy)phenyl)urea] was tested. Which S35 did it give?
**A.** D (D > 0.40)

**Q.** With `COc1cc2ncnc(Oc3cccc(NC(=O)Nc4cc(C(F)(F)F)nn4-c4cccc(C)c4)c3)c2cc1OC` [Ex 338, 1-(3-(6,7-dimethoxyquinazolin-4-yloxy)phenyl)-3-(1-m-tolyl-3-(trifluoromethyl)-1H-pyrazol-5-yl)urea] as the compound, how does the S35 read?
**A.** C (0.20 < C ≦ 0.40)

**Q.** With `COc1cc2ncnc(Oc3cccc(NC(=O)Nc4cc(C(C)(C)C)nn4-c4ccncc4)c3)c2cc1OC` [Ex 336, 1-(3-tert-butyl-1-(pyridin-4-yl)-1H-pyrazol-5-yl)-3-(3-(6,7-dimethoxyquinazolin-4-yloxy)phenyl)urea] as the compound, how does the S35 read?
**A.** D (D > 0.40)

**Q.** For `COc1cc2ncnc(Sc3cccc(NC(=O)Nc4cc(C5CC5)nn4-c4ccccc4)c3)c2cc1OC` [Ex 354, 1-(3-cyclopropyl-1-phenyl-1H-pyrazol-5-yl)-3-(3-(6,7-dimethoxyquinazolin-4-ylthio)phenyl)urea], which S35 is on record?
**A.** C (0.20 < C ≦ 0.40)

**Q.** With `COc1cc2ncnc(Oc3cccc(NC(=O)Nc4cc(C5CCC5)nn4-c4ccccc4)c3)c2cc1OC` [Ex 355, 1-(3-cyclobutyl-1-phenyl-1H-pyrazol-5-yl)-3-(3-(6,7-dimethoxyquinazolin-4-yloxy)phenyl)urea] as the compound, how does the S35 read?
**A.** C (0.20 < C ≦ 0.40)

**Q.** `COc1ccc(-n2nc(C(C)C)cc2NC(=O)Nc2cccc(Oc3ncnc4cc(OC)c(OC)cc34)c2)cc1` [Ex 348, 1-(3-(6,7-dimethoxyquinazolin-4-yloxy)phenyl)-3-(3-isopropyl-1-(4-methoxyphenyl)-1H-pyrazol-5-yl)urea] was tested. Which S35 did it give?
**A.** D (D > 0.40)

**Q.** With `COc1cc2ncnc(Oc3cccc(NC(=O)Nc4cc(C(C)(C)C)nn4-c4ccnc(C)c4)c3)c2cc1OC` [Ex 320, 1-(3-tert-butyl-1-(2-methylpyridin-4-yl)-1H-pyrazol-5-yl)-3-(3-(6,7-dimethoxyquinazolin-4-yloxy)phenyl)urea] as the compound, how does the S35 read?
**A.** D (D > 0.40)

**Q.** `COc1cc2ncnc(Oc3cccc(NC(=O)Nc4cc(C(C)(F)F)nn4-c4cncc(F)c4)c3)c2cc1OC` [Ex 316, 1-(3-(1,1-difluoroethyl)-1-(5-fluoropyridin-3-yl)-1H-pyrazol-5-yl)-3-(3-(6,7-dimethoxyquinazolin-4-yloxy)phenyl)urea] was tested. Which S35 did it give?
**A.** C (0.20 < C ≦ 0.40)

**Q.** For `COc1cc2ncnc(Oc3cccc(NC(=O)Nc4cc(C5CC5)nn4-c4ccccc4)c3)c2cc1OC` [Ex 353, 1-(3-cyclopropyl-1-phenyl-1H-pyrazol-5-yl)-3-(3-(6,7-dimethoxyquinazolin-4-yloxy)phenyl)urea], which S35 is on record?
**A.** C (0.20 < C ≦ 0.40)

**Q.** With `COc1cc2ncnc(Sc3cccc(NC(=O)Nc4cc(C5(C(F)(F)F)CC5)nn4-c4ccc(C)cc4)c3)c2cc1OC` [Ex 347, 1-(3-(6,7-dimethoxyquinazolin-4-ylthio)phenyl)-3-(1-p-tolyl-3-(1-(trifluoromethyl)cyclopropyl)-1H-pyrazol-5-yl)urea] as the compound, how does the S35 read?
**A.** D (D > 0.40)

**Q.** For `COc1cc2ncnc(Sc3cccc(NC(=O)Nc4cc(C(C)(C)C)nn4-c4ccc(C#N)cc4)c3)c2cc1OC` [Ex 329, 1-(3-tert-butyl-1-(4-cyanophenyl)-1H-pyrazol-5-yl)-3-(3-(6,7-dimethoxyquinazolin-4-ylthio)phenyl)urea], which S35 is on record?
**A.** D (D > 0.40)

**Q.** Which S35 does the source give for `COc1cc2ncnc(Oc3cccc(NC(=O)Nc4cc(C(C)(C)C)nn4-c4ccc(=O)[nH]c4)c3)c2cc1OC` [Ex 317, 1-(3-tert-butyl-1-(6-oxo-1,6-dihydropyridin-3-yl)-1H-pyrazol-5-yl)-3-(3-(6,7-dimethoxyquinazolin-4-yloxy)phenyl)urea] here?
**A.** D (D > 0.40)

**Q.** With `COc1cc2ncnc(Sc3cccc(NC(=O)Nc4cc(C(C)(C)C)nn4CC(C)C)c3)c2cc1OC` [Ex 333, 1-(3-tert-butyl-1-isobutyl-1H-pyrazol-5-yl)-3-(3-(6,7-dimethoxyquinazolin-4-ylthio)phenyl)urea] as the compound, how does the S35 read?
**A.** C (0.20 < C ≦ 0.40)

**Q.** How did the S35 turn out when `COc1cc2ncnc(Oc3cccc(NC(=O)Nc4cc(C(C)C)nn4-c4cncc(F)c4)c3)c2cc1OC` [Ex 314, 1-(3-(6,7-dimethoxyquinazolin-4-yloxy)phenyl)-3-(1-(5-fluoropyridin-3-yl)-3-isopropyl-1H-pyrazol-5-yl)urea] was run?
**A.** D (D > 0.40)

**Q.** With `COc1cc2ncnc(Oc3cccc(NC(=O)Nc4cc(C(C)(F)F)nn4-c4ccccc4)c3)c2cc1OC` [Ex 318, 1-(3-(1,1-difluoroethyl)-1-phenyl-1H-pyrazol-5-yl)-3-(3-(6,7-dimethoxyquinazolin-4-yloxy)phenyl)urea] as the compound, how does the S35 read?
**A.** C (0.20 < C ≦ 0.40)

**Q.** For `COc1cc2nc(Cl)nc(Oc3cccc(NC(=O)Nc4cc(C(C)(C)C)on4)c3)c2cc1OC` [Ex 310, 1-(5-tert-butylisoxazol-3-yl)-3-(3-(2-chloro-6,7-dimethoxyquinazolin-4-yloxy)phenyl)urea], which S35 is on record?
**A.** A (A ≦ 0.10)

**Q.** How did the S35 turn out when `COc1cc2ncnc(Oc3cccc(NC(=O)Nc4cc(C(C)(C)C)nn4C4CCCCC4)c3)c2cc1OC` [Ex 330, 1-(3-tert-butyl-1-cyclohexyl-1H-pyrazol-5-yl)-3-(3-(6,7-dimethoxyquinazolin-4-yloxy)phenyl)urea] was run?
**A.** C (0.20 < C ≦ 0.40)

— patent publication US9320739B2 (AMBIT BIOSCIENCES CORPORATION, priority 2008, dated 2016)
